Source: patent publication US20110190199A1, “Combination Therapy for Tuberculosis” (priority 2008, published 2011)
≈ marks a conversion by molar mass, not a printed value. Where “and” joins values, the source holds several entries; their conditions need not be identical. Identical values can stand only once. Like-named read-outs stand apart in the source and are kept apart here.

Tests used:
[1] = 600-625 mg by mouth twice daily; cited from earlier work
[2] = system: Mycobacterium tuberculosis; conditions: cited from earlier work
[3] = Single-dose and steady-state serum pharmacokinetics in the murine model; assay type: in vivo, mice
Experimental: To determine the single-dose and steady-state pharmacokinetic profiles of the compound of formula (I) and LZD in the murine model, a sub-study was nested in the above dose-ranging study using mice treated with the compound of formula (I) at 100 mg/kg once-daily or LZD at 130 mg/kg once- or twice-daily. Three mice per group were sacrificed at 0.5, 1, 2, 4, 8 and 24 hours after the first dose of treatment (D1) and at the aforementioned time points with the addition of a 9 hour time point (i.e., 1 hour after the second daily dose) on Day 24 (D24) of treatment. Mice were anesthetized with chloroform and exsanguinated by cardiac puncture. Whole blood was collected on ice and then centrifuged to obtain serum. Acetonitrile was added to the samples before storage in gasketed screwcap tubes at −20° C. D24 samples were collected and processed in the same manner and stored at −20° C. before being sent together with D1 samples to Pfizer (Groton, Conn.) for determination of drug concentrations. The supernatant was injected (10 μL injection volume) onto the LC (Shimadzu SCL-10A, Kyoto, Japan)-MS/MS (Sciex API 3000, Applied Biosystems Group, Foster City, Calif.) using a Hypersil C18 column (5 μm, 50×2.1 mm, Thermo Electron Corp, Waltham, Mass.) and a step gradient consisting of a mobile phase of A: water with 0.05% 5 mM ammonium formate and B: acetonitrile/water/5 mM ammonium formate (80:20:0.05%). The ionization was electrospray positive ion mode. Bioanalytical data were captured using Analyst (Version 1.4.1, Applied Biosystems Group, Foster City, Calif.). Pharmacokinetic calculations were based on mean serum concentrations and performed using the non-compartmental approach (linear trapezoidal rule for AUC calculation with the aid of Watson 7.2 Bioanalytical LIMS [Thermo Electron Corp, Waltham, Mass.)). […] Concentrations of 0 were used for kinetic calculations for all results below the lower limit of quantitation (5 ng/mL).

[4] = system: Mycobacterium tuberculosis H37Rv; assay type: in vivo, mice
[5] = system: Mycobacterium tuberculosis H37Rv; experiment: MIC by agar dilution on Middlebrook 7H11 agar; assay type: cell-based; conditions: 672 h, 7H11 agar + 10% OADC, 28 days at 37°C, lowest concentration to inhibit at least 99% of bacterial growth
[6] = system: M. tuberculosis H37Rv; experiment: Example 9: compound of formula I added to first and second line anti-tuberculosis drugs (survival, lung CFU after 4 weeks); assay type: in vivo, mice; conditions: D0 8.36 ± 0.10
[7] = system: Mycobacterium tuberculosis H37Rv; experiment: Example 6: in vivo activity of the combination (lung CFU after 4 and 8 weeks); parameters: species or system mice
[8] = system: Mycobacterium tuberculosis H37Rv; experiment: Example 8C: additional dose ranging study (4 and 8 weeks); assay type: in vivo, mice; conditions: lung
Experimental: The protocol described above in Example 8A and 8B was carried out on an alternative occasion. The only substantive changes were the number of animals per group and the initial incubation period.
Testing continued for an additional 4 weeks with 60 of the mice from Test Group 2 immediately above. The mice either received U alone, at varying doses, or the combination of U and R. The following results were obtained.

[9] = system: Mycobacterium tuberculosis H37Rv; experiment: Example 8B: eight week dose ranging study (second phase after 4 weeks RHZU25); assay type: in vivo, mice; parameters: Lung CFU / CFU-U only: unit not given here; conditions: for effect of U monotherapy against persisting tubercle bacilli / log reduction with U monotherapy against persisting tubercle bacilli: 4 weeks after initial 4 weeks of RHZU25; for CFU-U only: lung
Experimental: Eighty of the mice from Group 4 (in Example 8A) that had been receiving 25 mg/kg of the compound of formula I (U) along with rifampin(R), isoniazid(H), and pyrazinamide(Z) were evaluated in the second phase of the study. They were assigned to one of the groups described below in Table 6 and the study was continued for an additional 4 weeks (i.e. 8 week results).
As described above, 5 animals served as the control and no further drugs were given. Five were given the combination of rifampin(R) and isoniazid (H), five given isoniazid (H) or rifampin(R) alone. […] Six of these groups were also dosed with rifampin (R). The rifampin and isoniazid was dosed in the same manner and in the same amount as in Example 8A.
At the conclusion of the eight (8) week experiment, all of the animals were sacrificed and CFU lung counts were obtained.

[10] = Mycobacterium tuberculosis, literature
[11] = labelled regimen PLUS compound of formula (I) 100 mg/kg/day, INH 25, RIF 10, PZA 150, MXF 100 mg/kg, Day 0 7.37 ± 0.12
[12] = regimen as labelled, INH 25, RIF 10, PZA 150, MXF 100, compound of formula (I) 100 mg/kg, Day 0 7.37 ± 0.12

SMILES: CC(=O)NC[C@H]1CN(c2ccc(N3CCOCC3)c(F)c2)C(=O)O1 [LZD, linezolid]
- steady state AUC observed in humans [1]: 215 to 294 µg·h/mL
- MIC50 [2, 10]: 0.5 µg/mL (≈ 1.48 µM)
- MIC90 [2, 10]: 1 µg/mL (≈ 2.96 µM)
- MIC range [2, 10]: 0.125 to 1 µg/mL
- Cmax higher than that obtained in humans ([3]; 100 mg/kg dose in the mouse, based on linear kinetics): approximately 3 times
- steady state AUC higher than anticipated steady state AUC in humans ([3]; mouse 130 mg/kg daily vs humans 600-625 mg twice daily): approximately 50%
- AUC(0-t) ([3]; mouse, serum, po, 130 mg/kg, serum, Day 1, LZD 130 mg/kg daily oral, read-out: AUC0-24): 164 µg·h/mL
- Cmax ([3]; mouse, serum, po, 130 mg/kg, serum, Day 1, LZD 130 mg/kg daily oral, read-out: Cmax): 64.9 µg/mL
- AUC(0-t) ([3]; mouse, serum, po, 130 mg/kg, serum, Day 24, LZD 130 mg/kg daily oral, read-out: AUC0-24 (steady state AUC)): 379 µg·h/mL
- Cmax ([3]; mouse, serum, po, 130 mg/kg, serum, Day 24, LZD 130 mg/kg daily oral, read-out: Cmax): 58.4 µg/mL
- log kill (reduction in mean lung CFU count compared to the baseline value) ([4]; mouse, in vivo): 1.46 log10
- mean spleen weight ([4]; mouse, in vivo): 200 ± 47 mg and 102 ± 5 mg and 190 ± 52 mg
- Mean log10 CFU count (± SD) on Day 28 ([4]; mouse, in vivo, 25 mg/kg): 7.55 ± 0.24 log10 CFU
- Mean log10 CFU count (± SD) on Day 28 ([4]; mouse, in vivo, 50 mg/kg): 7.33 ± 0.11 log10 CFU
- Mean log10 CFU count (± SD) on Day 28 ([4]; mouse, in vivo, 100 mg/kg): 6.75 ± 0.14 log10 CFU
- Mean log10 CFU count (± SD) on Day 28 ([4]; mouse, in vivo, 260 mg/kg): 6.03 ± 0.12 log10 CFU
- MIC [5]: 0.25 µg/mL

SMILES: CC(=O)NC[C@H]1CN(c2ccc(N3CCSCC3)c(F)c2)C(=O)O1 [compound of formula (I), (S)—N-[[3-[3-fluoro-4-(4-thiomorpholinyl)phenyl]-2-oxo-5-oxazolidinyl]methyl]acetamide]
- Mean lung log10 CFU count (±) S.D. after 4 weeks of treatment with: Regimen + U 25 mg/kg ([6]; labelled drug PLUS U 25 mg/kg): 7.17 ± 0.23 log10 CFU
- Mean lung log10 CFU count (±) S.D. after 4 weeks of treatment with: Regimen + U 100 mg/kg ([6]; labelled drug PLUS U 100 mg/kg, lower limit of detection 3.40): 5.40 ± 0.10 log10 CFU
- MIC90 against M. tuberculosis ([2]; stated in the pharmacokinetics section (Barbachyn et al.)): 0.25 µg/mL
- Lung log10 CFU counts (±SD) after treatment with the indicated regimen plus the compound of formula (I) 100 mg/kg/day, Day 28 [7, 11]: 4.72 ± 0.17 log10 CFU
- Lung log10 CFU counts (±SD) after treatment with the indicated regimen plus the compound of formula (I) 100 mg/kg/day, Day 56 [7, 11]: 2.70 ± 0.29 log10 CFU
- reduction in lung CFU counts from baseline over the first 28 days ([7]; monotherapy, compound of formula (I) 100, INH 25, RIF 10 mg/kg): 2.65 log10
- Lung log10 CFU counts (±SD) after treatment with the indicated regimen, Day 28 [7, 12]: 4.72 log10 CFU
- Lung log10 CFU counts (±SD) after treatment with the indicated regimen, Day 56 [7, 12]: 2.70 log10 CFU
- CFU Count 8 weeks ([8]; 4 weeks RHZU100 then 4 weeks with U 6.25 mg/kg (alone or with R)): 4.93 ± 0.32
- CFU Count 8 weeks ([8]; 4 weeks RHZU100 then 4 weeks with U 12.5 mg/kg (alone or with R)): 5.30 ± 0.08
- CFU Count 8 weeks ([8]; 4 weeks RHZU100 then 4 weeks with U 25 mg/kg (alone or with R)): 5.27 ± 0.20
- CFU Count 8 weeks ([8]; 4 weeks RHZU100 then 4 weeks with U 50 mg/kg (alone or with R)): 4.59 ± 0.28
- CFU Count 8 weeks ([8]; 4 weeks RHZU100 then 4 weeks with U 100 mg/kg (alone or with R)): 3.86 ± 0.53
- CFU Count 8 weeks ([8]; 4 weeks RHZU100 then 4 weeks with U 160 mg/kg (alone or with R)): 2.90 ± 0.32
- AUC0-24 ([3]; mouse, in vivo, po, 100 mg/kg): 8.74 µg·h/mL
- Cmax ([3]; mouse, in vivo, po, 100 mg/kg): 4.32 µg/mL
- AUC(0-t) ([3]; mouse, in vivo, po, 100 mg/kg, AUC0-24): 7.33 µg·h/mL
- Cmax ([3]; mouse, in vivo, po, 100 mg/kg, Cmax): 6.07 µg/mL
- in vivo potency relative to LZD ([4]; 25 mg/kg as active as LZD 130 mg/kg, AUC about 3-fold lower at 100 mg/kg): 12 times
- log kill (reduction in mean lung CFU count compared to the baseline value) ([4]; 25 mg/kg, 28 days): 0.78 log10
- mean spleen weight ([4]; 25 mg/kg, after 28 days of treatment, pre-treatment 105±11 mg, untreated 237±16 mg): 113 ± 17 mg
- log kill (reduction in mean lung CFU count compared to the baseline value) ([4]; 50 mg/kg, 28 days): 2.21 log10
- Mean log10 CFU count (± SD) on Day 28 ([4]; lung, 25 mg/kg once daily, 5 days per week by gavage, Day 0 7.49 ± 0.11): 6.71 ± 0.28 log10 CFU
- Mean log10 CFU count (± SD) on Day 28 ([4]; lung, 25 mg/kg twice daily, Day 0 7.49 ± 0.11): 5.51 ± 0.14 log10 CFU
- Mean log10 CFU count (± SD) on Day 28 ([4]; lung, 50 mg/kg once daily, Day 0 7.49 ± 0.11, 50 mg/kg): 5.28
- Mean log10 CFU count (± SD) on Day 28 ([4]; lung, 50 mg/kg once daily, Day 0 7.49 ± 0.11, listed as Compound of Formula (I), 50 mg/kg): 5.28 ± 0.53 log10 CFU
- Mean log10 CFU count (± SD) on Day 28 ([4]; lung, 50 mg/kg twice daily, Day 0 7.49 ± 0.11): 4.89 ± 0.27 log10 CFU
- Mean log10 CFU count (± SD) on Day 28 ([4]; lung, 100 mg/kg once daily, Day 0 7.49 ± 0.11): 5.07 ± 0.14 log10 CFU
- effect of U monotherapy against persisting tubercle bacilli ([9]; 12.5 mg/kg): growth-inhibitory effect
- effect of U monotherapy against persisting tubercle bacilli ([9]; 25 mg/kg): bacteriostatic effect
- log reduction with U monotherapy against persisting tubercle bacilli ([9]; 50 mg/kg): > 0.5 log
- log reduction with U monotherapy against persisting tubercle bacilli ([9]; 100 mg/kg): > 1 log
- log reduction with U monotherapy against persisting tubercle bacilli ([9]; 160 mg/kg): ~2 log
- CFU-U only ([9]; 8 weeks: 4 weeks RHZU25 then 4 weeks U 12.5 mg/kg): 4.99 ± 0.19
- CFU-U only ([9]; 8 weeks: 4 weeks RHZU25 then 4 weeks U 25 mg/kg): 4.26 ± 0.24
- CFU-U only ([9]; 8 weeks: 4 weeks RHZU25 then 4 weeks U 50 mg/kg): 3.56 ± 0.15
- CFU-U only ([9]; 8 weeks: 4 weeks RHZU25 then 4 weeks U 50 mg/kg thrice weekly (3/7)): 4.21 ± 0.26
- CFU-U only ([9]; 8 weeks: 4 weeks RHZU25 then 4 weeks U 100 mg/kg): 2.88 ± 0.34
- CFU-U only ([9]; 8 weeks: 4 weeks RHZU25 then 4 weeks U 160 mg/kg): 2.42 ± 0.31
- MIC [5]: 0.25 µg/mL
